Assay results taken from patent US20220202610A1, “CONTACT LENS WITH SUSTAINED RELEASE PROPERTY” (priority 2020, published 2022).

Legend:
[1] = Release of lens drug (dexamethasone): drug loading, moist heat sterilization and release in saline, HPLC; type: physicochemical; conditions: 121° C., 30 minutes
Description: (§1) Sampling time point: 0, 2, 4 and 8 hours (N=3)
(1) Single drug-loaded lens was placed in a 5 mL ampoule. 1 mL of saline was added as a release medium. The lens was placed in a shake oven (MS Hybridization Shaking Oven, MO-AOR, Major Science), and a drug release test was conducted under the operating parameters of 35° C. and 100 rpm. The drug release solution was replaced with fresh saline every 2 hours.
(2) The drug content in the lens preservation solution and the drug content in the lens were analyzed by HPLC with RP-C18 column. The extraction method of drug (Dexamethasone, DEX) in the lens: one lens was taken out of the preservation solution. Lens surface moisture was fully absorbed with a lens cleaning paper. The one lens was immersed in 1 mL of methanol to stand for 8 hours to extract the drug. Then the drug content was analyzed by HPLC.

[2] = Release of lens drug (menthol): drug loading, moist heat sterilization and release in saline, HPLC; type: physicochemical; conditions: 121° C., 30 minutes
Description: as §1
First group: P-2.5HPC7/P6k-38CL
(1) Single drug-loaded lens was placed in a 5 mL ampoule. 1 mL of saline was added as a release medium. The lens was placed in a shake oven (MS Hybridization Shaking Oven, MO-AOR, Major Science), and a drug release test was conducted under the operating parameters of 35° C. and 100 rpm. No release solution was replaced throughout. Sampling: the lens was taken out at each time point. The drug was extracted with ethanol (98 wt %). The drug content was analyzed by HPLC with RP-C18 column. After the lens was taken out, no drug release test was performed.
(2) The extraction method of menthol in the lens: one lens was taken out of the ampoule used for the release test. Lens surface moisture was fully absorbed with a lens cleaning paper. The one lens was immersed in 1 mL of ethanol (98 wt %) to stand for 8 hours to extract the drug. Then the drug content was analyzed by HPLC.

SMILES | loss caused by the moist heat sterilization [1] | menthol in the lens preservation solution after the moist heat sterilization [2]
Cn1c(=O)c2c(ncn2C)n(C)c1=O [caffeine] | hardly causes the loss | 
CC1CCC(C(C)C)C(O)C1 (centres unmarked) [menthol] |  | most of the menthol in the lens preservation solution escapes
